Molecules are shown by their SMILES. Where “and” joins values, the source holds several entries; their conditions need not be identical. Identical values can stand only once.

The test system of one experiment is WT ELIC. Briefly: Asymmetric liposome stopped-flow Tl+ flux assay (no exchange vs exchange, 25 mol% outer leaflet POPG). The format is biochemical, Erwinia chrysanthemi. On the set-up: key to Tl+ flux quenching rate, Avg. / Tl+ flux quenching rate: Tl+ influx rate kt at 2 ms from stretched-exponential fit (Eq. 2b). Particulars: for Tl+ flux quenching rate, Avg. / Tl+ flux quenching rate: Exchange: WT in 3:1 PC:PE, 25% POPG in outer leaflet by beta-CD; for Tl+ flux quenching rate: single experiments. Here is the method: The fluorescence sequential-mixing stopped-flow liposomal flux measurements were carried using an SX20 stopped-flow spectrofluorometer (Applied Photophysics) and Pro-Data SX software[13],[30]. 7.5 mg of the respective lipid mixture (POPC, 1:1 POPC: POPE, 1:1 POPC:POPG, 3:1 POPC:POPE, 3:1 POPC:POPG, 2:1:1 POPC:POPE:POPG) was dried in a glass vial to a thin film under a constant stream of N2. The lipids were then further dried under vacuum in a desiccator overnight. The following day the lipids were hydrated in 500 µl of reconstitution buffer (100 mM NaNO3, 10 mM HEPES, pH 7) (Buffer R), 250 µl of 75 mM 8-Aminonaphthalene-1,3,6-Trisulfonic Acid (ANTS, ThermoFisher Scientific) in buffer R, and doped with ~18 mg of CHAPS (Anatrace). The mixture was vortexed and then sonicated with heat until completely solubilized. Following the sonication, the solution was brought to RT then 3.5 µl of 6.7 mg/ml ELIC in Buffer A with 0.02% DDM was added (3 µg per mg of lipid). This combined solution was incubated at RT for 30 min, followed by the addition of 1 ml of 1:1 v/v SM-2 BioBeads in Buffer R and an additional 250 µl of 75 mM ANTS in Buffer R. This mixture was incubated at RT for 2.5 hr with gentle mixing. The liposome suspension was then extruded with an Avanti mini-extruder and 0.1 µm membrane (30×). The extruded liposomes were stored at 13 °C overnight with gentle rotation. The next day, the liposomes were diluted to 2.5 mL using assay buffer (140 mM NaNO3, 10 mM HEPES, pH 7) (Stopped-flow Buffer A), loaded into a PD-10 desalting column (Cytiva), eluted with 3 mL of Stopped-flow Buffer A and subsequently diluted 5-fold with Stopped-flow Buffer A.
Using propylamine as the agonist, the assay and analysis was carried out as previously described[13],[30]. ELIC-containing liposomes were first mixed 1:1 with Buffer A containing 2× the concentration of propylamine. After a variable delay of 10 ms to 25 s, the sample was then mixed 1:1 with a quenching buffer (90 mM NaNO3, 50 mM TlNO3, 10 mM HEPES, pH 7), and ANTS fluorescence (ex. 360 nm, fluorescence above 420 nm) was recorded for 1 s. For each delay time, 5 repeat measurements were obtained. The data were collected using Applied Photophysics Pro-Data SX software. The fluorescence quenching traces were fit to a stretched exponential (Eq. 2a) and the rate of Tl^+ influx was determined at 2 ms (Eq. 2b).2a Ft=F∞+F0−F∞⋅e^−t/τ^β 2b kt=β/τ⋅2ms/τ^(β−1) where Ft, F∞, F0 are the fluorescence at time t, final fluorescence and initial fluorescence. τ is the time constant, β the stretched exponential factor, and kt the calculated rate of Tl^+ influx at 2 ms. The time course of desensitization was also fit to a double exponential and a weighted time constant was calculated as was done for the patch-clamp data using Origin 2019b. All replicates were taken from independent samples.
Acceptor liposomes were prepared as described in the Stopped-flow fluorescence recordings section until completion of the extrusion step. The preparation was scaled up 2x to produce samples for the no-exchange and exchange conditions. After extrusion and storage of the liposomes overnight at 13 °C, the double liposome preparation was split into two equal volume aliquots of ~1.5 ml. Using the excel spreadsheet provided by Markones et al.[44], donor POPG and methyl-β-cyclodextrin (MβCD, Sigma) concentrations and volumes were calculated to produce an outer leaflet POPG content of 25 mol% in the liposomes. The calculations assumed a ~6.66 mM lipid concentration and 1.5 mL volume of the acceptor liposome solution[44]. A MβCD-POPG (50% saturation of MβCD by POPG) solution was formed by combining 224 µL 7.5 mM POPG in Stopped-flow Buffer A, 650 µl 300 mM MβCD in Stopped-flow Buffer A, and 126 µL Stopped-flow Buffer A, which was then mixed at 50 °C and 1000 RPM for 20 min using an Eppendorf thermomixer. […]

Experiment [1] deals with T1, ELIC3 (V261Y/G319F/I320F) (Dickeya chrysanthemi, UniProt P0C7B7, G318F/I319F/V260Y).
T1 construct: host or cells: OverExpress C43 (DE3) E. coli
T1 sequence (P0C7B7 whole entry V260Y/G318F/I319F): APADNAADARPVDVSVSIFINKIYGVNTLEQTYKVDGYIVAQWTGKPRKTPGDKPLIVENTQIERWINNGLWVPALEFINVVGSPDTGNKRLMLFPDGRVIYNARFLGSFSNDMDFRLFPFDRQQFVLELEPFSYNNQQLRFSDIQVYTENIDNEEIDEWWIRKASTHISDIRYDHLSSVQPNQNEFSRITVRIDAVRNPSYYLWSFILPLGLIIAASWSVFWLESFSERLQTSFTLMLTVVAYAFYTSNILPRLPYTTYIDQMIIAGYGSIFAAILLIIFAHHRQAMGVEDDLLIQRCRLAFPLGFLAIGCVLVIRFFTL
Kind of experiment: Giant liposome excised patch-clamp recordings (2:1:1 POPC:POPE:POPG). The format is biochemical, Erwinia chrysanthemi. How it is done: Giant liposome formation and excised patch-clamp recordings of ELIC were performed as previously described[12],[13]. 0.5 mg of WT ELIC, ELIC3 or ELIC5 were reconstituted in 5 mg of 2:1:1 POPC:POPE:POPG liposomes, using DDM destabilization and biobeads. 10 mM MOPS pH 7 and 150 mM NaCl (MOPS buffer) was used throughout. Proteoliposomes were pelleted and resuspended in ~80 µl, and frozen in 10 µl aliquots. Giant liposomes were formed by dehydrating 10 µl of proteoliposomes on a glass coverslip in a vacuum desiccator for ~20 min followed by rehydration with 100 µl of MOPS buffer overnight at 4 °C and 2 hr at RT the following day. The giant liposomes were resuspended by pipetting and applied to a recording chamber. The liposomes were allowed to settle for 15 min, after which free liposomes and debris were removed by exchanging the bath solution. Bath and pipette solutions contained MOPS buffer and 0.5 mM BaCl2 (Sigma). […] Rapid application or washout of agonist were performed using a three-barreled flowpipe mounted to and controlled by a SF-77B fast perfusion system (Warner Instrument Corporation). […] Deactivation time courses were fit with a single exponential while the time course of desensitization was fit with a double exponential. Weighted time constants were calculated using Eq. 1:1 Weighted Tau=A1×τ1+(A2×τ2)/A1+A2 where A1 and A2 are the amplitudes of the first and second exponential components. The data were collected and analyzed using pClamp10.4 software.

The mark [2] stands for this setting: 25 mol% in outer leaflet, 10 mM propylamine.
Setting [3] is: 10 mM propylamine, delay 0.01 s.
Setting [4] is: 10 mM propylamine, delay 0.05 s.
The mark [5] stands for this setting: 10 mM propylamine, delay 0.25 s.

With `CCCCCCCC/C=C\CCCCCCCC(=O)OC(COC(=O)CCCCCCCCCCCCCCC)COP(=O)(O)OCC(O)CO` (stereo not drawn) [POPG, 1-palmitoyl-2-oleoyl-phosphatidylglycerol], the “time constant of desensitization” value in the experiment on WT ELIC (25% POPG introduced to the outer leaflet) was ~ 6 s. In addition, the “effect on peak agonist response” value in the experiment with WT ELIC (setting [2]) is “increased the peak agonist response approximately two-fold”. Moreover, the “effect on rate of desensitization” value in the experiment with WT ELIC (setting [2]) is given as “reduced the rate of desensitization”. Also, the “Tl+ flux quenching rate, Avg.” value in the experiment with WT ELIC (setting [3]) worked out at 18.3739; in the experiment on WT ELIC (10 mM propylamine, delay 0.025 s) it was 13.1397; with WT ELIC (setting [4]) it was 28.9905; in the experiment on WT ELIC (10 mM propylamine, delay 0.1 s) it was 40.2879; with WT ELIC (setting [5]), 49.694; in the experiment with WT ELIC (10 mM propylamine, delay 0.5 s) it was 74.7874. In addition, the “Tl+ flux quenching rate, Avg.” value in the experiment on WT ELIC (10 mM propylamine, delay 1 s) was determined as 70.2446; in the experiment with WT ELIC (10 mM propylamine, delay 2.5 s), 59.7249; with WT ELIC (10 mM propylamine, delay 5 s), 40.3668; in the experiment on WT ELIC (10 mM propylamine, delay 10 s) it was 38.6421; in the experiment with WT ELIC (10 mM propylamine, delay 25 s), 9.131. Moreover, the “Tl+ flux quenching rate” value in the experiment with WT ELIC (setting [3]) was 25.3857 and 14.5673 and 13.3121 and 20.2302; in the experiment with WT ELIC (setting [4]) it was 31.4624 and 22.583 and 30.1073 and 31.8092; in the experiment with WT ELIC (setting [5]), 55.8845 and 34.2232 and 67.362 and 41.3064; in the experiment on WT ELIC (10 mM propylamine, delay 0.5 s) it was 114.141 and 61.2513 and 65.8238 and 57.9331.
The EC50 is the concentration at which the effect is half-maximal. Consider `NCCS` [cysteamine], for which the “Peak response (normalized)” value in experiment [1] (0.3 mM cysteamine) was 0.02035; in experiment [1] (1 mM cysteamine) it was 0.4462; in experiment [1] (3 mM cysteamine), 0.7955; in experiment [1] (10 mM cysteamine), 1.022; in experiment [1] (30 mM cysteamine), 1. Besides, the “Relative current at 60s, Average” value in experiment [1] (10 mM Cys) worked out at 0.1185; in experiment [1] (30 mM Cys) it was 0.08245. In addition, the “Time constant of deactivation, Deactivation Tau” value in experiment [1] (10 mM Cys) worked out at 1.081 s; in experiment [1] (30 mM Cys), 1.658 s. For the same compound, the “Time constant of desensitizaton, Weighted Tau” value in experiment [1] (10 mM Cys) is on record as 12.8369 s; in experiment [1] (30 mM Cys), 8.1999 s. In experiment [1] (2:1:1 giant liposomes, 0.5 mM BaCl2, Hill n set to 2, read-out: EC50 of peak current dose response), the EC50 came out at 1200 ± 200 µM.

(Values after publication PMC9668969 (Nature Communications, 2022).)
